Like-named read-outs stand apart in the source and are kept apart here.
Columns and labels:
[1] = tested on: NADPH-oxidase activation (H2O2 release) in PMNs; test: Respiratory burst (H2O2 assay) in PMNs; format: cell-based, human; settings: Homo sapiens, read-out: Inhibition of H2O2 release induced by PMA in PMNs (% PMA control); for inhibition at 0.0005 µM: [cpd] 0.0005 μM; for inhibition at 0.001 µM: [cpd] 0.001 μM
Experimental: (§1) NADPH-oxidase activation was measured as induction of H2O2 release (derived from dismutation of O2^−) triggered in PMNs and monocytes by PMA (200 ng/ml). Briefly, PMNs and monocytes were pretreated at 37° C. for 30-60 min with test compound at different concentrations, and stimulated with phorbol 12-myristate 13-acetate (PMA, 200 ng/ml) dissolved in 0.5 ml of a standard reaction mixture. Release of H2O2 was evaluated in real time at time points of 5 min by using a microplate fluorescence reader (Perkin-Elmer). Results are expressed as nmoles of H2O2 released over time by 10^6 cells. Shown are dose-response curves of inhibitory effect on H2O2 release over 60 min.

[2] = tested on: NADPH-oxidase activation (H2O2 release) in Monocytes; test: Respiratory burst (H2O2 assay) in monocytes; format: cell-based, human; settings: Homo sapiens, Monocyte; for inhibition at 0.0005 µM: [cpd] 0.0005 μM
Experimental: as §1

V-ATPase = settings: literature; cited from earlier work
PMNs = test: Chemoattractant-induced rapid adhesion of PMNs to fibrinogen (CR3 ligand); format: cell-based; settings: Homo sapiens, read-out: Inhibition of Adhesion (%) PMNs (fMLP) (converted); for inhibition at 25 µM: [cpd] 25 μM; for inhibition at 50 µM: [cpd] 50 μM; for inhibition at 100 µM: [cpd] 100 μM
Experimental: (§2) Adhesion was performed on purified integrin ligands and was evaluated as reported in Constantin G. et al., Immunity, 16, 759-769, 2000. Briefly, primary naïve lymphocytes, polymorphonuclear neutrophils (PMNs) or monocytes were isolated form healthy donors. In other experiments, murine autoreactive T cells were obtained from SJL mice immunized with PLP139-151 as described (Piccio L. et al., J. Immunol. 168, 1940-1949, 2002). Cells were resuspended at 4×10^6/ml in PBS, CaCl2, MgCl2 1 mM, 10% FCS, pH 7.2. Adhesion assays were performed on eighteen well glass slides coated overnight at 4° C. with ligands for CR3 (fibrinogen) or LFA-1 (ICAM-1). 20 μl of cell suspension were added to the wells and stimulated at 37° C. with 5 μl of agonists prior to washing, fixation and computer-assisted enumeration of bound cells.
(§3) Integrin activation was measured as induction of rapid adhesion triggered by the classical chemoattractant N-formyl-L-methionyl-L-leucyl-phenylalanine (fMLP) (100 nM) or by the CC chemokine MIP3β (CCL19, 1 μM). PMNs and monocytes were triggered to adhere to fibrinogen (CR3 ligand); naive human lymphocytes or murine encephalitogenic T cells were triggered to adhere to ICAM-1 (LFA-1 ligand). Triggered adhesion was evaluated after 2 min of stimulation under static conditions. The cells were pretreated at 37° C. for 30-60 min with the indicated concentrations of the test compound. Results are expressed as percentage of inhibition over control (=100%) and are the mean of three experiments in the case of human leukocytes. Results are expressed as mean counts and are the mean counts±S.D of three experiments and are the mean of three experiments in the case of murine encephalitogenic lymphocytes.
(§4) Integrin activation was measured as induction of rapid adhesion triggered by the “classical” chemoattractant fMLP (100 nM) or by the CC chemokine MIP3β(CCL19, 1 μM). PMNs were triggered to adhere to fibrinogen (CR3 ligand); lymphocytes were triggered to adhere to ICAM-1 (LFA-1 ligand).

Lymphocytes = test: Chemokine-induced rapid adhesion of lymphocytes to ICAM-1 (LFA-1 ligand); format: cell-based; settings: Homo sapiens, Lymphocyte, read-out: Inhibition of Adhesion (%) Lymphocytes (MIP3-β) (converted); for inhibition at 25 µM: [cpd] 25 μM; for inhibition at 50 µM: [cpd] 50 μM; for inhibition at 100 µM: [cpd] 100 μM
Experimental: as §2, §3, §4

[3] = tested on: encephalitogenic lymphocytes; test: Chemokine-induced adhesion of murine encephalitogenic T cells to ICAM-1; format: cell-based, murine (SJL mice); settings: NT control in the same cell
Experimental: as §2, §3
Chemokines trigger rapid arrest of lymphocytes in blood vessels through pertussis toxin-sensitive G protein coupled receptors. […] Autoreactive lymphocytes were then stimulated with 1 μM CCL19 (MIP-3beta) for 3 min.

Row | Compound | inhibition at 25 µM (PMNs) [%] | inhibition at 50 µM (PMNs) [%] | inhibition at 100 µM (PMNs) [%] | inhibition at 25 µM (Lymphocytes) [%] | inhibition at 50 µM (Lymphocytes) [%] | inhibition at 100 µM (Lymphocytes) [%] | Chemokine-induced Adhesion in encephalitogenic lymphocytes, Mean counts ± S.D., in absence of MIP3-β stimulation ([3]; [cpd] 5 μM) | Chemokine-induced Adhesion in encephalitogenic lymphocytes, Mean counts ± S.D., in presence of MIP3-β stimulation ([3]; [cpd] 5 μM) | Chemokine-induced Adhesion in encephalitogenic lymphocytes, Mean counts ± S.D., in absence of MIP3-β stimulation ([3]; [cpd] 50 μM) | Chemokine-induced Adhesion in encephalitogenic lymphocytes, Mean counts ± S.D., in presence of MIP3-β stimulation ([3]; [cpd] 50 μM) | other results
1 | CO/C1=C\C(C)=C\[C@@H](C)[C@@H](O)[C@@H](C)C/C(C)=C/C=C/[C@H](OC)[C@@H]([C@@H](C)[C@@H](O)[C@H](C)[C@@]2(O)C[C@@H](O)[C@H](C)[C@@H](C(C)C)O2)OC1=O [Bafilomycin A1] |  |  |  |  |  |  |  |  |  |  | inhibition at 0.0005 µM ([1]; 0.5 h, 30 min): 7.1%; inhibition at 0.001 µM ([1]; 0.5 h, 30 min): 26.4%; inhibition at 0.0005 µM ([1]; 40 min, 40 min): 9.8%; inhibition at 0.001 µM ([1]; 40 min, 40 min): 27.2%; inhibition at 0.0005 µM ([1]; 50 min, 50 min): 9.3%; inhibition at 0.001 µM ([1]; 50 min, 50 min): 29.9%; inhibition at 0.0005 µM ([2]; 0.5 h, 30 min, read-out: Inhibition of H2O2 release induced by PMA in Monocytes (% PMA control)): 22.1%; inhibition at 0.001 µM ([2]; 0.5 h, [cpd] 0.001 μM, 30 min, read-out: Inhibition of H2O2 release induced by PMA in Monocytes (% PMA control)): 30.8%; inhibition at 0.0005 µM ([2]; 40 min, 40 min, read-out: Inhibition of H2O2 release induced by PMA in Monocytes (% PMA control)): 28.2%; inhibition at 0.001 µM ([2]; 40 min, [cpd] 0.001 μM, 40 min, read-out: Inhibition of H2O2 release induced by PMA in Monocytes (% PMA control)): 37.2%; inhibition at 0.0005 µM ([2]; 50 min, 50 min, read-out: Inhibition of H2O2 release induced by PMA in Monocytes (% PMA control)): 32.4%; inhibition at 0.001 µM ([2]; 50 min, [cpd] 0.001 μM, 50 min, read-out: Inhibition of H2O2 release induced by PMA in Monocytes (% PMA control)): 47.9%; inhibition at 0.001 µM ([2]; 1 nM concentration, read-out: inhibition of the respiratory burst in monocytes): 48%; inhibition of V-ATPase (in words) (V-ATPase): very potent and highly specific inhibitors
2 | COc1ccc(-c2c(C(N)=O)[nH]c3cc(OC)c(OC)cc23)cc1 [Example 14] | 62.8 | 83.9 | 94.9 | 30.9 | 70.9 | 91.8 |  |  |  |  | 
3 | COc1ccc(-c2c(-c3nnco3)[nH]c3cc(OC)c(OC)cc23)cc1 [Example 26] | 34.7 | 50.5 | 57.5 | 8.7 | 21.9 | 26.7 | 93.1 ± 7.5 | 125.9 ± 7.2 | 49.8 ± 5.9 | 98.9 ± 12.0 | 
4 | COc1ccc(-c2c3n(c4cc(OC)c(OC)cc24)CCNC3)cc1 [Example 28] | 34.7 | 41 | 46.5 | 16.7 | 34.8 | 49.1 | 75.7 ± 9.0 | 127.0 ± 5.0 | 48.6 ± 2.9 | 118.8 ± 10.8 | 
5 | COCCn1c(C(=O)OC)c(-c2ccc(OC)cc2)c2cc(OC)c(OC)cc21 [Example 39] | 33.8 | 39.1 | 44.8 | 8.2 | 26.4 | 41.4 | 72.9 ± 8.8 | 118.2 ± 10.0 | 44.8 ± 1.9 | 104.4 ± 5.0 | 
